Where a SMILES comes first, the peptide text is derived from it. [ ]: non-standard residue; d: D form. Dopa = N[C@@H](Cc1ccc(O)c(O)c1)C(=O)O; Cha = N[C@@H](CC1CCCCC1)C(=O)O
Columns and labels:
[1] = Rheology of peptide hydrogels (storage and loss modulus); assay type: physicochemical; conditions: 15 mg/mL in 1×PBS
Protocol: In one embodiment, the structural characteristics of these peptides also influence the rheological properties of the peptides, such as stiffness. The stiffness of the peptide hydrogels was assessed by rheology measurements. The five peptides, DoIIZK, IIZDoK, IIZKDo, IIZ(KDo)2 and IIZ(KDo)3 were dispersed in phosphate-buffered saline (1×PBS) to final concentrations of […]. Only DoIIZK and IIZKDo formed transparent hydrogels after preparation of gels onto rheology glass rings; the rest of the peptides formed grey/opaque hydrogels. This difference implies that the fibrils of peptides DoIIZK and IIZKDo had sufficient time to disperse and spread in solution before entrapping water to gel, while peptides IIZDoK, IIZ(KDo)2 and IIZ(KDo)3 gelled quickly upon fibril formation. Therefore, the rheological properties of the peptides were measured at the concentration of 15 mg/ml. […] The storage modulus and loss modulus reflect the stress response of the hydrogel in oscillatory shear. […]
Peptide hydrogels were prepared by weighing the appropriate peptide amount of the lyophilized peptide powder in 2 mL glass-vials. […] Rheological analysis mechanical properties of the formed gels were assessed by using the TA Ares-G2 Rheometer with an 8 mm titanium parallel-plate geometry. […] Time-sweep, frequency-sweep, and amplitude-sweep, were measured for each sample to explore the mechanical stiffness of the gels. […]

[2] = test system: Acropora hemprichii fragments; assay: Adhesion of bigger coral fragments with IIZKDo glue to tile and 3D printed coral; assay type: in vivo
Excerpt: The donor corals Acropora spp. shown in FIG. 36 were collected from the Red Sea.
In one embodiment, IIZKDo was used for the adhesion of bigger and heavier coral fragments to the 3D printed coral, which would be the situation in coral reef restoration. In gluing larger coral fragments, two different type of Acropora hemprichii were glued: some big fragments with an irregular base, and some smaller pieces with smooth base.
In one embodiment, the big fragments with irregular base and the smaller pieces with smooth base were attached to a tile. The cut small pieces of coral were attached to a special sheet for macrofragmentation so that these fragments further grew on the surface of the spreadsheet, in order to obtain fragments with a base smooth enough to stick them on the tile. After 15 days, the big fragments were still fully attached to the tile, whereas the small, flat fragments were all detached.
After verifying the best performing glue among the three DoIIZK, IIZDoK, IIZKDo, IIZKDo was selected to glue some coral fragments onto 3D printed PLA corals used for coral reef restoration project. Using a diagonal plier, the tip of each branch-like part (ca. 1.5-2.5 cm in length) of a donor Acropora hemprichii coral was gently cut to minimize damage to the coral itself. FIG. 36 illustrates the parts being cut from the donor coral. […] The initial donor coral was moved from a large shallow aquarium (230×148×140 cm) supplied with running seawater to a relatively shallow aquarium also outfitted with running seawater. While preparing the glue, the cut fragments were kept in a small shallow aquarium (72×54×29 cm) filled with sea water to not harm them until use. In the meantime, the glue was prepared by mixing IIZKDo 40 mg/mL in water and the mixture was poured on a glass slide and allowed to rest for about 5 minutes to equilibrate, as shown in FIG. 42. The cut coral fragment was removed from the aquarium, and cleaned, while moisture was allowed to absorb from the cut section with sterilized filter paper. The ceramic tile was cleaned twice with water, and then sea water to mimic the adhesion of the glue to a wet, salty surface.
A few drops of IIZKDo was applied at the surface of the cut section of the coral fragment, and the fragment was immediately glued at the surface of the tile, as shown in FIG. 43. As a control, some smaller fragments with smooth surface Acropora hemprichii, were glued using the same peptide-based glue.
The tile with attached coral fragments was placed in the original shallow aquarium (230×148×140 cm) to keep the coral in its natural environment as shown in FIG. 44 and checked after 3 days. Only the big fragments were still sticking on the tile. Therefore, only big fragments were then glued to the 3D printed poly-lactic acid (PLA) printed coral structure primed with MakerBot, which is a 3D printer based on fused deposition modeling method and grew in harsher conditions, such as in the presence of algae etc.

[3] = Big fragments with irregular base, n = 5, tile
[4] = Flat fragments with smooth base, n = 3, tile

Row | SMILES | Storage and Loss moduli, times lower than DoIIZK and IIZKDo [1] | Storage modulus ([1]; 25° C.) | Survival after 15 days in the aquarium [2, 3] | Survival after attachment [2, 3] | Survival after 15 days in the aquarium [2, 4] | Survival after attachment [2, 4] | time coral fragments kept glued to a 3D printed substrate ([2]; seawater)
1 | CC[C@H](C)[C@H](NC(C)=O)C(=O)N[C@H](C(=O)N[C@@H](CC1CCCCC1)C(=O)N[C@@H](Cc1ccc(O)c(O)c1)C(=O)N[C@@H](CCCCN)C(N)=O)[C@@H](C)CC [IIZDoK, Ac-Ile-Ile-Cha-Dopa-Lys-NH2] (Ac-II[Cha][Dopa]K-NH2) | roughly 10 times | 2-5 kPa |  |  |  |  | 
2 | CC[C@H](C)[C@H](NC(C)=O)C(=O)N[C@H](C(=O)N[C@@H](CC1CCCCC1)C(=O)N[C@@H](CCCCN)C(=O)N[C@@H](Cc1ccc(O)c(O)c1)C(N)=O)[C@@H](C)CC [IIZKDo, Ac-Ile-Ile-Cha-Lys-Dopa-NH2] (Ac-II[Cha]K[Dopa]-NH2) |  |  | 5 | 5 | 0 | 3 | several months
